Four compounds from patent US12336536B2, “Method for controlling herbicide resistant or tolerant weeds” (BASF Agro B.V., priority 2015, dated 2025) can be followed below.

Common to all, as to assay: Greenhouse test, solo and combination, post-emergence, 20 DAT
The test system of assay [1] is BRSNW. In kind it is in vivo, Brassica napus. Here is the method:
(§1) The test plants have been seeded, separately for each species, in plastic containers in sandy loamy soil containing 5% of organic matter.
(§2) For the post-emergence treatment, the plants were first grown to the 2 leaf station (GS 12) and applied at GS 12-19 depending on the species. The herbicidal compositions were suspended or emulsified in water as distribution medium and sprayed using finely distributing nozzles.
(§3) The plants have been cultivated due to their individual requirements at 10-25° C. and 20-35° C. The plants were irrigated due to their necessity.
(§4) The racemic mixture (±)-2-exo-(2-Methylbenzyloxy)-1-methyl-4-isopropyl-7-oxabicyclo[2.2.1]heptane was used as herbicide A and formulated as emulsifiable concentrate having an active ingredient concentration of 750 g/l.
(§5) Cyhalofop-butyl (herbicide B.5) was used as an emulsifiable concentrate (EC) formulation having an active ingredient concentration of 200 g/l.
(§6) Metsulfuron-methyl (herbicide B.53) was used as a water soluble granule (SG) formulation having an active ingredient concentration of 20%.
(§7) Bispyribac-sodium (herbicide B.23) was used as a soluble concentrate (SL) formulation having an active ingredient concentration of 408 g/l.
(§8) Quizalofop-P-ethyl (herbicide B.217) was used as a suspension concentrate (SC) formulation having an active ingredient concentration of 106 g/l.
(§9) In the following experiments, the herbicidal activity for the individual herbicide compounds (solo and mixture applications) was assessed 20 days after treatment (DAT).
(§10) The evaluation for the damage on undesired weeds caused by the chemical compositions was carried out using a scale from 0 to 100%, compared to the untreated control plants. Here, 0 means no damage and 100 means complete destruction of the plants.
(§11) The plants used in the greenhouse experiments belonged to the following species:
(§12) E=X+Y−(X·Y/100) • where X=effect in percent using herbicide A at an application rate a; • Y=effect in percent using herbicide B at application rate b; • E=expected effect (in %) of herbicide A+herbicide B at application rates a+b.
(§13) The value E corresponds to the effect (plant damage or injury) which is to be expected if the activity of the individual compounds is additive. If the observed effect is higher than the value E calculated according to the Colby equation, a synergistic effect is present.
(§14) Tables 3 to 6 below relate the herbicidal activity, in greenhouse trials, of the individual actives and the combination applied at different rates and ratios, in post-emergence application at 20 days after treatment (DAT).

Assay [2] has as its system ALOMY. It is filed as in vivo, Alopecurus myosuroides. Here is the method: as §1, §2, §3, §4, §5, §6, §7, §8, §9, §10, §11, §12, §13, §14
For assay [3], the system named is LOLRI. In kind it is in vivo, Lolium rigidum. Here is the method: as §1, §2, §3, §4, §5, §6, §7, §8, §9, §10, §11, §12, §13, §14
In assay [4] the test system is MATIN. In kind it is in vivo, Matricaria inodora. Here is the method: as §1, §2, §3, §4, §5, §6, §7, §8, §9, §10, §11, §12, §13, §14
The subject of assay [5] is GALAP. It is filed as in vivo, Galium aparine. On the procedure: as §1, §2, §3, §4, §5, §6, §7, §8, §9, §10, §11, §12, §13, §14
Assay [6] concerns PAPRH. In kind it is in vivo, Papaver rhoeas. Here is the method:
as §1, §2, §3, §4, §5, §6, §7, §8, §9, §10, §11, §12, §13, §14

Assay [7] concerns BROST. In kind it is in vivo, Bromus sterilis. On the procedure: as §1, §2, §3, §4, §5, §6, §7, §8, §9, §10, §11, §12, §13, §14

SMILES strings stand for the structures.

`COC(=O)c1ccccc1S(=O)(=O)NC(=O)Nc1nc(C)nc(OC)n1` [metsulfuron-methyl]: the Herbicidal activity amounted to 90% in assay [1] (solo application 1 g ai/ha); 95% in assay [1] (solo application 2 g ai/ha); 98% in assay [1] (solo application 8 g ai/ha); 0% in assay [2] (solo application 1 g ai/ha); 10% in assay [3] (solo application 1 g ai/ha); 90% in assay [4] (solo application 1 g ai/ha). In addition, the Herbicidal activity amounted to 90% in assay [4] (solo application 2 g ai/ha); 85% in assay [4] (solo application 4 g ai/ha); 90% in assay [4] (solo application 8 g ai/ha); 30% in assay [5] (solo application 4 g ai/ha); 25% in assay [5] (solo application 8 g ai/ha); 0% in assay [6] (solo application 1 g ai/ha). Moreover, the Herbicidal activity in assay [6] (solo application 4 g ai/ha) stood at 50%; in assay [6] (solo application 8 g ai/ha), 98%.

Turning to `CCOC(=O)[C@@H](C)Oc1ccc(Oc2cnc3cc(Cl)ccc3n2)cc1` [quizalofop-P-ethyl], the Herbicidal activity in assay [1] (solo application 120 g ai/ha) stood at 0%; in assay [2] (solo application 15 g ai/ha), 60%; in assay [2] (solo application 30 g ai/ha), 65%; in assay [2] (solo application 120 g ai/ha), 85%; in assay [3] (solo application 15 g ai/ha), 80%; in assay [3] (solo application 30 g ai/ha) it was 95%. Also, the Herbicidal activity in assay [7] (solo application 15 g ai/ha) was 15%; in assay [7] (solo application 30 g ai/ha), 50%; in assay [7] (solo application 60 g ai/ha), 80%; in assay [7] (solo application 120 g ai/ha) it was 95%; in assay [4] (solo application 15 g ai/ha), 0%; in assay [4] (solo application 30 g ai/ha), 0%. For the same compound, the Herbicidal activity is recorded as 10% in assay [4] (solo application 60 g ai/ha), 0% in assay [5] (solo application 15 g ai/ha), 0% in assay [5] (solo application 30 g ai/ha) and 25% in assay [6] (solo application 15 g ai/ha).

On to `COc1cc(OC)nc(Oc2cccc(Oc3nc(OC)cc(OC)n3)c2C(=O)O)n1` [bispyribac-sodium], for which the Herbicidal activity worked out at 98% in assay [1] (solo application 15 g ai/ha); 0% in assay [2] (solo application 30 g ai/ha); 0% in assay [2] (solo application 60 g ai/ha); 5% in assay [3] (solo application 60 g ai/ha); 85% in assay [4] (solo application 60 g ai/ha); 90% in assay [4] (solo application 120 g ai/ha). The Herbicidal activity in assay [5] (solo application 15 g ai/ha) came to 40%; in assay [5] (solo application 30 g ai/ha) it was 65%; in assay [5] (solo application 120 g ai/ha) it was 95%; in assay [6] (solo application 15 g ai/ha) it was 0%; in assay [6] (solo application 60 g ai/ha) it was 50%; in assay [6] (solo application 120 g ai/ha), 50%.

`CCCCOC(=O)[C@@H](C)Oc1ccc(Oc2ccc(C#N)cc2F)cc1` [cyhalofop-butyl]: the Herbicidal activity turned out to be 0% in assay [1] (solo application 100 g ai/ha); 5% in assay [2] (solo application 25 g ai/ha); 20% in assay [2] (solo application 50 g ai/ha); 25% in assay [3] (solo application 12.5 g ai/ha); 0% in assay [7] (solo application 100 g ai/ha); 0% in assay [4] (solo application 100 g ai/ha). In addition, the Herbicidal activity in assay [5] (solo application 50 g ai/ha), in assay [5] (solo application 100 g ai/ha), in assay [6] (solo application 12.5 g ai/ha) and in assay [6] (solo application 50 g ai/ha) was 0% each time.
